Results: US20170008888A1 (KYORIN PHARMACEUTICAL CO., LTD., priority 2014, published 2017)
pEC50: −log10 of the molar value. Marks after values point to notes of the source that are not given here.

What was measured:
[1] = system: DNFB-induced ear inflammation mouse model; assay: DNFB-induced ear inflammation (contact hypersensitivity) mouse model: ear weight; type: in vivo, mouse (Balb/c); settings: 3 mg/kg PO, QD on Day 5 (elicitation)
Experimental: (§1) In vivo T-cell mediated immune response was examined in a mouse model of CHS using the hapten dinitrofluorobenzene (DNFB) as the induction agent. Method for sensitization and elicitation of DNFB-induced CHS was modified from Xu et al. J. Exp. Med. 1996. 183:1001-1012. On Days 0 and 1 (sensitization), 20 μL of 0.5% v/v DNFB in acetone:olive oil (4:1) was applied to each hindpaw of 8 week old male mice (Balb/c, Charles River Laboratories; 10 mice per group unless otherwise noted). On Day 5 (elicitation) 10 μL of 0.2% v/v DNFB in acetone: olive oil (4:1) was applied to the dorsal surface of the right ear of each animal; 10 μL of acetone: olive oil (4:1) was applied to the dorsal surface of the left ear as control. Treatments were administered by group as indicated in the table below; on days when DNFB was used, the QD and the morning dose of BID as appropriate were administered 30 minutes-1 hr. prior to DNFB application. […] Approximately 24 hours after elicitation (Day 6), a 7 mm tissue punch from the central portion of both ears was collected and wet weights measured. The primary functional assessment was the difference in wet weights of the right (DNFB) vs. left (vehicle) ears compared to the vehicle treatment (Vehicle1-S) as an indicator of inflammation (Table 17). Ear tissue punches were flash frozen, stored at −70° C. and analyzed for cytokines (see below). Body weights of the mice were measured at baseline and at end of study, and there were no significant changes in weight in any treatment group during the study (data not shown).

[2] = system: DNFB-induced ear inflammation mouse model; assay: DNFB-induced ear inflammation mouse model: cytokine concentrations in ear tissue; type: in vivo, mouse (Balb/c); settings: Dex 3 mg/kg PO, regimen E
Experimental: as §1, with “Method for sensitization and elicitation of DNFB-induced CHS was modified from Xu et al. J. Exp. Med. 1996. 183:1001-1012.” left out, “below).” for “below). Body weights of the mice were measured at baseline and at end of study, and there were no significant changes in weight in any treatment group during the study (data not shown).”
Cytokine concentrations after DNFB induction and treatment were analyzed in the weighed and flash frozen tissues of the right (DNFB) and left (control) 7 mm ear punches. The ear tissues were stored at −70° C. until prepared for analysis as follows. Left or right ear tissues from the same treatment group were pooled and crushed with mortar and pestle under liquid nitrogen. Tissue representing 7-8 ear punches by weight was homogenized in Buffer A (50 mM HEPES pH 7.4, 100 mM NaCl) containing 1 tablet EDTA-free Protease Inhibitor (Thermo Fisher Scientific, Rockford, Ill.) per 10 mL, 1× Phosphatase Inhibitor Cocktail II (AG Scientific, San Diego, Calif.), and 1 mM PMSF (Sigma, St. Louis, Mo.). Homogenization was performed in Lysing Matrix D tubes (MP Biomedicals, Solon, Ohio), using the FastPrep-24 instrument (MP Biomedicals) at a speed setting of 6 for 4 cycles of 30 seconds, with cooling on ice in between cycles. The tubes were then centrifuged at 1,000×g for 10 min at 4° C. Supernatant was collected and briefly sonicated using the Microson probe sonicator at setting 3 (Misonix, Farmingdale, N.Y.) before centrifuging again at 10,000×g for 10 min at 4° C. The supernatant was ultracentrifuged at 100,000×g for 1 h at 4° C. in the Optima Max-E (Beckman Coulter, Indianapolis, Ind.) to separate soluble and membrane protein fractions. The soluble (supernatant) fraction was collected and protein concentrations determined using the Dc protein kit (Bio-Rad, Hercules, Calif.). Soluble ear proteins were analyzed in triplicate for cytokine response at a final protein concentration of 4 mg/ml using the Bio-Plex Pro Mouse Cytokine 23-Plex panel (Bio-Rad) as per manufacturer's protocols. Magnetic beads were read on the Bio-Plex MAGPIX multiplex reader instrument using the accompanying xPONENT 4.2 acquisition software (Bio-Rad Laboratories, Hercules, Calif.). Data were analyzed via the Bio-Plex Manager software v6.1 (Bio-Rad Laboratories). Response was calculated as a percentage of the cytokine concentrations measured in the right (DNFB) ears of vehicle 1 dosed (S regimen, i.e. dosed Day 0-5) mice (Table 18).

[3] = system: Imiquimod-induced psoriasis mouse model; assay: Imiquimod (IMQ)-induced acute model of psoriasis in mouse: skin thickness, erythema, scaling; type: in vivo, mouse (Balb/c)
Experimental: Material and methods for the IMQ study were adapted from van der Fits et al. J Immunol., 2009, 182: 5836-5845. Eight week old male Balb/c mice (Harlan) received a daily topical dose of 62.5 mg 5% IMQ cream (Aldara™, Medicis) equivalent to 3.125 mg IMQ, on the shaved back (approximately 2×3.5 cm patch) and dorsal surface of the right ear for 6 consecutive days. Sham control mice were treated similarly with control cream (Hydrous Emulsified Base, HEB, Cream, Fagron). Treatments were administered by group as indicated in Table 1 below prior to daily application of IMQ (QD and morning dose of BID regimens), n=10 for all groups. […] Body weights and scoring of induced clinical disease were performed after dosing (Days 1-7) but prior to IMQ application (Days 1-6) on Days 1 (baseline), 3, 4, 6, 8. Mice were sacrificed on Day 8 and treated back skin tissue collected and divided for fixation for histopathology (a 12 mm punch in mid-back) the remainder flash frozen; right (IMQ) and left (control) ears, spleen (after wet weight) and lung were also individually collected and flash frozen, and stored at −70° C. for subsequent biochemical analyses. Statistics were performed using one-way ANOVA with Dunnett's post-hoc test comparing treated groups to the vehicle group, using InStat software (GraphPad, La Jolla, Calif.).
The severity of clinical disease was assessed by
1) skin thickness dial gauge micrometer measurements (duplicate) of the ears and the dorsal skin at the midline of the back (equal to double true measure of dorsal skin thickness)
2) erythema and scaling, independently scored on a scale from 0-4: 0=none, 1=slight, 2=moderate, 3=marked, 4=very marked with intermediate increments of 0.5 allowed.
Clinical disease assessments included erythema, scaling, skin thickness and cumulative disease severity scores and the change in skin thickness of the ears and dorsal back skin over time compared to baseline measurements (Tables 19 and 20). Body weights of the mice were measured at baseline and at end of study, and there were no significant changes in weight in any treatment group during the study (data not shown).

MV-4-11 cells = assay: MV-4-11 proliferation EC50 assay (CellTiter-Glo); type: cell-based; settings: Homo sapiens, MV4-11, 48 h, read-out: MV-4-11 proliferation EC50, ave. ± S.D.
Experimental: Human biphenotypic B myelomonocytic leukemia MV-4-11 cells (ATCC, Manassas, Va.) were treated with test compounds at 2e5 cells/ml in IMDM medium containing 10% (v/v) FBS (Life Technologies, Grand Island, N.Y.) and 1×Pen/Strep Amphotericin B (Lonza, Allendale, N.J.). Compounds were tested at 25 μM down by ⅓ in a 9 point serial dilution series. Cells were incubated for 48 h at 37° C. in a humidified atmosphere at 5% CO2. MV-4-11 cell proliferation was then indirectly determined via cellular ATP content using the CellTiter-Glo® Luminescent Cell Viability Assay (Promega, Madison, Wis.) as per the manufacturer's instructions. Briefly, experimental plates were equilibrated at room temperature for 30 minutes. An equal volume of CellTiter-Glo® reagent was added to each well and incubated for 15 minutes at room temperature. Luminescent signal was read using the Wallac 1420 Victor^2 multilabel microplate reader (Perkin Elmer, Waltham, Mass.). EC50 values were determined using GraphPad Prism software v5.04.

[4] = Day 1 (baseline), Dexamethasone 3 mg/kg PO
[5] = Day 3, Dexamethasone 3 mg/kg PO
[6] = Day 4, Dexamethasone 3 mg/kg PO
[7] = Day 6, Dexamethasone 3 mg/kg PO
[8] = Day 8, Dexamethasone 3 mg/kg PO

Compound: C[C@@H]1C[C@H]2[C@@H]3CCC4=CC(=O)C=C[C@]4(C)[C@@]3(F)[C@@H](O)C[C@]2(C)[C@@]1(O)C(=O)CO [Dexamethasone, reference compound]
- % Reduction Weight Increase Vs. Vehicle 1 Weight Increase [1]: −60.0%
- IFN-γ: Mean % Cytokine Concentration in DNFB Treated Right Ears versus Vehicle 1-Dosed (S) Mice [2]: 74%
- IL-1α: Mean % Cytokine Concentration in DNFB Treated Right Ears versus Vehicle 1-Dosed (S) Mice [2]: 189%
- IL-1β: Mean % Cytokine Concentration in DNFB Treated Right Ears versus Vehicle 1-Dosed (S) Mice [2]: 53%
- IL-3: Mean % Cytokine Concentration in DNFB Treated Right Ears versus Vehicle 1-Dosed (S) Mice [2]: 76%
- IL-5: Mean % Cytokine Concentration in DNFB Treated Right Ears versus Vehicle 1-Dosed (S) Mice [2]: 58%
- IL-6: Mean % Cytokine Concentration in DNFB Treated Right Ears versus Vehicle 1-Dosed (S) Mice [2]: 36%
- IL-12 (p40): Mean % Cytokine Concentration in DNFB Treated Right Ears versus Vehicle 1-Dosed (S) Mice [2]: 59%
- IL-13: Mean % Cytokine Concentration in DNFB Treated Right Ears versus Vehicle 1-Dosed (S) Mice [2]: 81%
- IL-17A: Mean % Cytokine Concentration in DNFB Treated Right Ears versus Vehicle 1-Dosed (S) Mice [2]: 63%
- KC: Mean % Cytokine Concentration in DNFB Treated Right Ears versus Vehicle 1-Dosed (S) Mice [2]: 29%
- MCP-1: Mean % Cytokine Concentration in DNFB Treated Right Ears versus Vehicle 1-Dosed (S) Mice [2]: 41%
- MIP-1α: Mean % Cytokine Concentration in DNFB Treated Right Ears versus Vehicle 1-Dosed (S) Mice [2]: 53%
- MIP-1β: Mean % Cytokine Concentration in DNFB Treated Right Ears versus Vehicle 1-Dosed (S) Mice [2]: 39%
- RANTES: Mean % Cytokine Concentration in DNFB Treated Right Ears versus Vehicle 1-Dosed (S) Mice [2]: 42%
- TNF-α: Mean % Cytokine Concentration in DNFB Treated Right Ears versus Vehicle 1-Dosed (S) Mice [2]: 74%
- Clinical Score Erythema (0-4), AVG Score [3, 4]: 0
- Clinical Score Scaling (0-4), AVG Score [3, 4]: 0
- % Mean DORSAL BACK THICKNESS versus day 1, AVG [3, 5]: 3.08%
- % Mean LEFT EAR THICKNESS [Control] versus day 1, AVG [3, 5]: −9.64%
- % Mean RIGHT EAR THICKNESS [IMQ] versus day 1, AVG [3, 5]: −5.32%
- Clinical Score Erythema (0-4), AVG Score [3, 5]: 0.05
- Clinical Score Scaling (0-4), AVG Score [3, 5]: 0
- % Mean DORSAL BACK THICKNESS versus day 1, AVG [3, 6]: 13.71%
- % Mean LEFT EAR THICKNESS [Control] versus day 1, AVG [3, 6]: −10.38%
- % Mean RIGHT EAR THICKNESS [IMQ] versus day 1, AVG [3, 6]: −2.08%
- Clinical Score Erythema (0-4), AVG Score [3, 6]: 0.65
- Clinical Score Scaling (0-4), AVG Score [3, 6]: 0.2
- % Mean DORSAL BACK THICKNESS versus day 1, AVG [3, 7]: 13.04** %
- % Mean LEFT EAR THICKNESS [Control] versus day 1, AVG [3, 7]: −9.61%
- % Mean RIGHT EAR THICKNESS [IMQ] versus day 1, AVG [3, 7]: 10.54** %
- Clinical Score Erythema (0-4), AVG Score [3, 7]: 0.45
- Clinical Score Scaling (0-4), AVG Score [3, 7]: 0.5
- % Mean DORSAL BACK THICKNESS versus day 1, AVG [3, 8]: 14.32** %
- % Mean LEFT EAR THICKNESS [Control] versus day 1, AVG [3, 8]: −14.05%
- % Mean RIGHT EAR THICKNESS [IMQ] versus day 1, AVG [3, 8]: 10.40** %
- Clinical Score Erythema (0-4), AVG Score [3, 8]: 0.45
- Clinical Score Scaling (0-4), AVG Score [3, 8]: 0.35

Compound: CN1C(=O)c2ccccc2N(C)c2nc(Nc3ccc(N4CCC(O)CC4)cn3)ncc21 [Compound IV-5 in WO 2010/080712]
- pEC50 (MV-4-11 cells): 5.95
